Patent US7012095B2, “Compounds for modulating cell proliferation” (HSC Research and Development Limited, priority 2000, dated 2006)
One block for each compound: values may come before it.

Assays:
normal bone marrow cells [1] = experiment: In vitro purging of normal bone marrow; type: cell-based; conditions: 50 μM, seven hours exposure, FIG. 21
Procedure: Heparinized bone marrow cells were layered over Percoll (1.077 gm/ml) (Pharmacia Fine Chemical, Piscataway N.J.) and centrifuged at 400 g at 4° C. for 10 minutes to remove neutrophils and RBCs.
For the purging process, the cells were resuspended at 1×10^6/ml in complete medium with or without 50 μM CR4. The cells were incubated with the CR4 for two and a half hours at 37° C., 5% CO2. At the end of this period the cells were thoroughly washed in medium to remove CR4 and then cultured at 2×10^5 cells/ml in IMDM (OCI, Toronto) containing 0.9% (vol/vol) methylcellulose supplemented with 30% FCS (Cansera Rexdale, ON.) or normal human plasma, a cocktail of cytokines containing G-CSF (10 ng/ml, Amgen), IL-3 (40 U/ml, Immunex), MGF (50 ng/ml, Immunex), Erythropoietin (2 u/ml, Epprex) or TPO (10 ng/ml, Amgen) and 5×10^−5M b-2-mercaptoethanol. The culture mixture was plated in 1 ml volumes into 35 mm petri dishes and incubated at 37° C., 5% CO2 in a humidified atmosphere. All cultures were evaluated at 14 days for the number of BFU-E colonies (defined as aggregates of more than 500 hemaglobinized cells or, 3 or more erythroid subcolonies), CFU-C colonies (defined as granulocyte or monocyte-macrophage cells or both) and CFU-GEMM colonies (a mixed population comprising of all elements).
For the purging process, the cells were resuspended at 1×10^6/ml in complete medium with or without 50 μM CR11. The cells were incubated with the tryrphostin for seven hours at 37° C., 5% CO2. At the end of this period the cells were thoroughly washed in medium to remove CR11 and then cultured at 2×10^5 cells/ml in IMDM (OCI, Toronto) containing 0.9% (vol/vol) methylcellulose supplementd with 30% FCS (Cansera Rexdale, ON.) or normal human plasma, a cocktail of cytokines containing G-CSF (10 ng/ml, Amgen), IL-3 (40 U/ml, Immunex), MGF (50 ng/ml, Immunex), Erythropoietin (2 u/ml, Epprex) or TPO (10 ng/ml, Amgen) and 5×10^−5M β-2-mercaptoethanol. The culture mixture was plated in 1 ml volumes into 35 mm petri dishes and incubated at 37° C., 5% CO2 in a humidified atmosphere. All cultures were evaluated at 14 days for the number of BFU-E colonies (defined as aggregates of more than 500 hemoglobinized cells or, 3 or more erythroid subcolonies), CFU-C colonies (defined as granulocyte or monocyte-macrophage cells or both) and CFU-GEMM colonies (a mixed population comprising of all elements).

[2] = system: Philadelphia positive ALL, AML and lymphoma; experiment: In vitro / ex vivo purging assays, summary statements; type: cell-based
[3] = system: variety of cancer cells (ALL, Philadelphia positive ALL, acute myeloid leukemia, myeloma, B-lineage lymphoma); experiment: Cancer cell growth in culture, summary statements; type: cell-based; conditions: for efficacy against a variety of cell types (Acute Lymphoblastic Leukemia, Philadelphia positive Leukemia, Acute Myeloid Leukemia): in culture
normal bone marrow cells [4] = experiment: CFU-GEMM assay, normal bone marrow differentiation in culture; type: cell-based; conditions: 14 days
Procedure: The CFU-GEMM assay was performed according to Fauser and Messner (1978, Blood, 52(6) 143–8) and Messner and Fausser (1980, Blut, 41(5) 327–33) with some variations. In brief, heparinized bone marrow cells were layered over Percoll (1.077 gm/ml) (Pharmacia Fine Chemical, Piscataway N.J.) and centrifuged at 400 g at 4° C. for 10 minutes to remove neutrophils and RBCs. The fractionated BM cells at 2×10^5 cells/ml were cultured in IMDM (OCI, Toronto) containing 0.9% (vol/vol) methylcellulose supplemented with 30% FCS (Cansera Rexdale, ON.) or normal human plasma, a cocktail of cytokines containing G-CSF (10 ng/ml, Amgen), IL-3 (40 U/ml, Immunex), MGF (50 ng/ml, Immunex), Erythropoietin (2 u/ml, Epprex) or TPO (10 ng/ml, Amgen), 5×10^−5M β-2-mercaptoethanol and the specified concentration of CR4. The culture mixture was plated in 1 ml volumes into 35 mm petri dishes and incubated at 37° C., 5% CO2 in a humidified atmosphere. All cultures were evaluated at 14 days for the number of BFU-E colonies (defined as aggregates of more than 500 hemoglobinized cells or, 3 or more erythroid subcolonies), CFU-GM colonies (defined as granulocyte or monocyte-macrophage cells or both), CFU-Meg colonies (comprising 4 or more megakaryocytes) and CFU-GEMM colonies (a mixed population comprising of all elements).
The CFU-GEMM assay was performed according to Fauser and Messner (1978, Blood, 52(6) 1243–8) and Messner and Fausser (1980, Blut, 41(5) 327–33) with some variations. In brief, heparinized bone marrow cells were layered over Percoll (1.077 gm/ml) (Pharmacia Fine Chemical, Piscataway N.J.) and centrifuged at 400 g at 4° C. for 10 minutes to remove neutrophils and RBCs. […] All cultures were evaluated at 14 days for the number of BFU-E colonies (defined as aggregates of more than 500 hemaglobinized cells or, 3 or more erythroid subcolonies) and CFU-C colonies (defined as granulocyte or monocyte-macrophage cells or both).
The CFU-GEMM assay was performed according to Fauser and Messner (1978, Blood, 52(6) 1243–8) and Messner and Fausser (1980, Blut, 41(5) 327–33) with some variations (British Journal of Haematology, 1992, 80, p40–48). […] All cultures were evaluated at 14 days for the number of BFU-E colonies (defined as aggregates of more than 500 hemoglobinized cells or, 3 or more erythroid subcolonies) and CFU-C colonies (defined as granulocyte or monocyte-macrophage cells or both).

Ph+ ALL cells = experiment: Killing of Philadelphia positive ALL cells in methylcellulose colony culture; type: cell-based, human
Procedure: (§1) Ph+ ALL cells were plated in 1 ml volumes, in the absence of exogenous growth factors, into 35 mm petri dishes (Nunc, Gibco) containing alpha MEM (Gibco) plus 10% FCS (Cansera Rexdale, ON.) in 0.9% (vol/vol) methylcellulose (Fluka, Switzerland) with the indicated concentrations of CR4. Cultures were set at 37° C., 5% CO2 in a humidified atmosphere. Colonies consisting of more than 20 cells were counted at 12 days or earlier using an inverted microscope.
as §1, with “ALL” for “Ph+ ALL”, “20%” for “10%”, “and” for “with”, “compound.” for “CR4.”
as §1, with “ALL” for “Ph+ ALL”, “20%” for “10%”, “and” for “with”, “CR24.” for “CR4.”, “9” for “12”, “microscope. […]” for “microscope.”

BFU-E, CFU-GEMM and CFU-C colonies (normal bone marrow cells [1]): all normal
SMILES: COc1cc(/C=C/C=C(\C#N)C(=O)NCc2ccc(O)c(O)c2)cc(OC)c1O [CR11, (E,E)-2-(3,4-Dihydroxybenzylamido)-3-(3,5-dimethoxy-4-hydroxystyryl)acrylonitrile]
inhibition of colony formation (normal bone marrow cells [1]; 14 days): did not result in any significant inhibition | efficacy as ex vivo purging agents [2]: effective | efficacy against a variety of cell types (Acute Lymphoblastic Leukemia, Philadelphia positive Leukemia, Acute Myeloid Leukemia) [3]: highly effective

SMILES: N#C/C(=C\C=C\c1ccccc1)C(=O)NCc1ccc(O)c(O)c1 [CR19, (E,E)-2-(3,4 Dihydroxybenzylamido)-3-styrylacrylonitrile]
stimulatory effect on CFU-C colony formation (normal bone marrow cells [4]; 5 μM, FIG. 12): disappeared | efficacy against a variety of cell types (Acute Lymphoblastic Leukemia, Philadelphia positive Leukemia, Acute Myeloid Leukemia) [3]: highly effective | toxicity to cancer cells ([3]; low nanomolar doses, long term exposure): highly toxic

inhibition of BFU-E colony formation (normal bone marrow cells [4]; 20 μM, FIG. 13): inhibition
SMILES: N#C/C(=C\C=C\c1ccc(O)c(O)c1)C(=O)NCc1ccc(O)c(O)c1 [CR21, (E,E)-2-(3,4 Dihydroxybenzylamido)-3-(3,4-dihydroxystyryl)acrylonitrile]
concentration inhibiting cell growth (Ph+ ALL cells; Ph+ ALL, colonies at 12 days, FIG. 8): 5 µM

SMILES: COc1cc(/C=C/C=C(\C#N)C(=O)NCCO)cc(OC)c1O [CR24, (E,E)-2-(β-Ethanolamido)-3-(3,5-dimethoxy-4-hydroxystyryl)acrylonitrile]
lowest concentration effective against Ph+ ALL cells (Ph+ ALL cells; colonies at 9 days, FIG. 10): 0.5 µM
